Reference: EP0555537B1, “Endothelin antagonists” (BANYU PHARMACEUTICAL CO., LTD., priority 1991, dated 1993)
Numbered stars: 1 amine (or outer) side, 2 acyl side, 3 side chain; on linkers, the order of the positions; unused ones are H or OH. Square brackets hold non-standard residues; d marks the D form. Peptide text beside a SMILES is read from it. * marks the point of attachment. dNle = CCCC[C@@H](N)C(=O)O; Piperidide = C1CCN(*)CC1; Pyrrolidide = C1CCN(*)C1; dAbu = CC[C@@H](N)C(=O)O; Boc = CC(C)(C)OC(=O)*; CO = O=C([*:1])[*:2]; NHtBu = CC(C)(C)N*; Moc = COC(=O)*

Target: T1, ETB receptor (Sus scrofa, UniProt P35463)
T1 construct: ETB receptors of porcine cerebellum membrane suspension used in the present experiments; from tissue; host or cells: porcine cerebellum membrane fraction
T1 sequence (P35463 27-443): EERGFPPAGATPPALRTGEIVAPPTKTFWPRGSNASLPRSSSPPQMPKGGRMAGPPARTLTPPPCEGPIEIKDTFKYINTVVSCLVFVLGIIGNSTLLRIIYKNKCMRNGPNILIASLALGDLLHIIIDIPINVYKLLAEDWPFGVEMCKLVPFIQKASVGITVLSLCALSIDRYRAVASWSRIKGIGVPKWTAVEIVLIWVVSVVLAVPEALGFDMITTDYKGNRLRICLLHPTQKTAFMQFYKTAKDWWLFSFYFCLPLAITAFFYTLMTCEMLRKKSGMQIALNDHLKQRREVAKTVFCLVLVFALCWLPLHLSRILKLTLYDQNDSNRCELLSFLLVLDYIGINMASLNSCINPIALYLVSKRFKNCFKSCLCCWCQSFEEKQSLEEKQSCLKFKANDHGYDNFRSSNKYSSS
Assay: Endothelin binding inhibition test (^125I-endothelin-1, porcine cerebellum membrane suspension)
Conditions: 1.1 µM of the test compound, triplicate
Description: The cerebellum of porcine was homogenized in a buffer solution of 10 mM MOPS, pH 7.4, at 4°C by a polytron. To the homogenate, sucrose was added to a concentration of 20%, and the mixture was centrifuged at 1,000 x g for 15 minutes, and the supernatant was further centrifuged at 10,000 x g for 15 minutes. The supernatant thereof was further centrifuged at 90,000 x g for 40 minutes. The membrane precipitate thereby obtained was suspended in a buffer solution of 5 mM HEPES/Tris, pH 7.4, at a concentration of 3.3 mg/ml.
Then, 16 µl of this membrane suspension was added to 340 µl of 50 mM tris/HCl buffer, pH 7.4, containing […] calcium chloride, 10 µM magnesium chloride, 0.1 mM PMSF, 1 µM pepstatin A, 2 µM leupeptin, 1 mM 1,10-phenanthroline and 0.1% bovine serum albumin. To this suspension, 4 µl of (A) endothelin-1 (for nonspecific binding; 0.2 µM as the final concentration), (B) buffer solution A (for total control binding), or (C) a test compound (1.1 µM as the final concentration), was added. Further, to each suspension, 40 µl of ^125I-endothelin-1 (12000-18000 cpm) was added. These mixtures were incubated at 25°C for 4 hours, then subjected to filtration on a glass filter GF/C and then washed with 5 mM HEPES/Tris, pH 7.4, containing 0.3% bovine serum albumin. Then, the radioactivity trapped by the glass filter was measured, and the ^125I-endothelin-1 binding inhibition D (%) at 1.1 µM of the test compound was determined by the following equation. D(%) = 100 -((C) - (A))/((B) - (A))× 100 [formula]
Each test was performed in triplicate.
The test compounds are indicated by compound Nos.

`CCCC[C@@H](NC(=O)[C@@H](Cc1cn(C(=O)OC)c2ccccc12)NC(=O)[C@H](CC(C)C)NC(=O)Nc1ccccc1Cl)C(=O)O` [Compound 1] was tested, and the inhibition at 1.1 µM was 99%.
With `CCCC[C@@H](NC(=O)[C@@H](Cc1cn(C(=O)OCC)c2ccccc12)NC(=O)[C@H](CC(C)C)NC(=O)Nc1ccccc1Cl)C(=O)O` [Compound 2] the inhibition at 1.1 µM was 97%.
Compound `CCCC[C@@H](NC(=O)[C@@H](Cc1cn(C(=O)OC)c2ccccc12)NC(=O)[C@H](CC(C)C)NC(=O)Nc1c(Cl)cccc1Cl)C(=O)O` [Compound 3] has an inhibition at 1.1 µM of 94%.
For `CCCC[C@@H](NC(=O)[C@@H](Cc1cn(C(=O)OC)c2ccccc12)NC(=O)[C@H](CC(C)C)NC(=O)N1CCCCCC1)C(=O)O` [Compound 9], the inhibition at 1.1 µM was 99%.
In the case of `CCCC[C@@H](NC(=O)[C@@H](Cc1cn(C(=O)OC)c2ccccc12)NC(=O)[C@H](CC(C)C)NC(=O)N1CCSCC1)C(=O)O` [Compound 10], the inhibition at 1.1 µM is reported as 89%.
Work on `CCCC[C@@H](NC(=O)[C@@H](Cc1cn(C(=O)OC)c2ccccc12)NC(=O)[C@H](CC(C)C)NC(=O)N1CCCC1)C(=O)O` [Compound 11] ({Pyrrolidide-CO}-Leu-[dW](Moc)-[dNle]-OH) yielded an inhibition at 1.1 µM of 73%.
`CCCC[C@@H](NC(=O)[C@@H](Cc1cn(C(=O)OC)c2ccccc12)NC(=O)[C@H](CC(C)C)NC(=O)N1CCCCC1)C(=O)O` [Compound 12] ({Piperidide-CO}-Leu-[dW](Moc)-[dNle]-OH) was tested, and the inhibition at 1.1 µM was 96%.
Compound `CCCC[C@@H](NC(=O)[C@@H](Cc1cn(C(=O)OC)c2ccccc12)NC(=O)[C@H](CC(C)C)NC(=O)N1CCSC1)C(=O)O` [Compound 13] has an inhibition at 1.1 µM of 72%.
With `CCCC[C@@H](NC(=O)[C@@H](Cc1cn(C(=O)OC)c2ccccc12)NC(=O)[C@H](CC(C)C)NC(=O)N(C(C)C)C(C)C)C(=O)O` [Compound 14] the inhibition at 1.1 µM was 99%.
In the case of `CCCC[C@@H](NC(=O)[C@@H](Cc1cn(C(=O)OC)c2ccccc12)NC(=O)[C@H](CC(C)C)NC(=O)N(CCC)C1CCCC1)C(=O)O` [Compound 17], the inhibition at 1.1 µM is reported as 95%.
For `CCCC[C@@H](NC(=O)[C@@H](Cc1cn(C(=O)OC)c2ccccc12)NC(=O)[C@H](CC(C)C)NC(=O)NC12CC3CC(CC(C3)C1)C2)C(=O)O` [Compound 25], the inhibition at 1.1 µM was 97%.
`CC[C@@H](NC(=O)[C@@H](Cc1cn(C(=O)OC)c2ccccc12)NC(=O)[C@H](CC(C)C)NC(=O)OC(C)(C)C)C(=O)O` [Compound 26] (Boc-Leu-[dW](Moc)-[dAbu]-OH) was tested, and the inhibition at 1.1 µM was 71%.
`CCCC[C@@H](NC(=O)[C@@H](Cc1cn(C(=O)OC)c2ccccc12)NC(=O)[C@H](CC(C)C)NC(=O)NC(C)(C)C)C(=O)O` [Compound 27] ({NHtBu-CO}-Leu-[dW](Moc)-[dNle]-OH) was tested, and the inhibition at 1.1 µM was 91%.
Work on `CCCC[C@@H](NC(=O)[C@@H](Cc1cn(C(=O)OC)c2ccccc12)NC(=O)[C@H](CC(C)C)NC(=O)N1CCCCCCC1)C(=O)OC(C)(C)C` [Compound 28] yielded an inhibition at 1.1 µM of 92%.
In the case of `CCCC[C@@H](NC(=O)[C@@H](Cc1cn(C(=O)OC)c2ccccc12)NC(=O)[C@H](CC(C)C)NC(=O)N1CCCCCCC1)C(=O)O` [Compound 29], the inhibition at 1.1 µM is reported as 99%.
`CCCC[C@@H](NC(=O)[C@@H](Cc1c(Cl)[nH]c2ccccc12)NC(=O)[C@H](CC(C)C)NC(=O)N1C(C)CCCC1C)C(=O)O` (some centres unmarked) [Compound 67] showed an inhibition at 1.1 µM of 97%.
In the case of `CCCC[C@@H](NC(=O)[C@@H](Cc1c(Cl)[nH]c2ccccc12)NC(=O)[C@H](CC(C)C)NC(=O)N1CCCCCC1)C(=O)O` [Compound 68], the inhibition at 1.1 µM is reported as 93%.
